This is an account of results in PMC3518395 (Nature communications, 2012).

Square brackets hold non-standard residues; d marks the D form.

For one experiment, the system named is αvβ3. As to conditions: cited from earlier work.
Experiment [1] concerns the target integrin αvβ3 (Homo sapiens) (UniProt P06756). To be noted: cited from earlier work.
The target in experiment [2] is T1, DNA:PNA-D5 (15 c(RGDfK) ligands) (also: 15 copies conjugated via PEG/squarate linker to LKγ-PNA:DNA scaffold).
T1 chain: cyclo(RGD[dF]K)
Kind of experiment: 125I-echistatin competitive displacement on C32 cells.

As a reminder, the Kd is the concentration at which binding is half-saturated.

In the case of Echistatin, the “echistatin association constant for binding to αvβ3 integrin” value in the experiment on αvβ3 (published value, fixed in the fit) was 3.33e+09 M. Moreover, the Kd at αvβ3 (read-out: Kd of echistatin for αvβ3) is 0.3 nM.

Take echistatin (from UniProt P17347): the Kd in experiment [1] was 0.3 nM.

B1: integrin αvβ3 (protein)
chain 1: FNLDVDSPAEYSGPEGSYFGFAVDFFVPSASSRMFLLVGAPKANTTQPGIVEGGQVLKCDWSSTRRCQPIEFDATGNRDYAKDDPLEFKSHQWFGASVRSKQDKILACAPLYHWRTEMKQEREPVGTCFLQDGTKTVEYAPCRSQDIDADGQGFCQGGFSIDFTKADRVLLGGPGSFYWQGQLISDQVAEIVSKYDPNVYSIKYNNQLATRTAQAIFDDSYLGYSVAVGDFNGDGIDDFVSGVPRAARTLGMVYIYDGKNMSSLYNFTGEQMAAYFGFSVAATDINGDDYADVFIGAPLFMDRGSDGKLQEVGQVSVSLQRASGDFQTTKLNGFEVFARFGSAIAPLGDLDQDGFNDIAIAAPYGGEDKKGIVYIFNGRSTGLNAVPSQILEGQWAARSMPPSFGYSMKGATDIDKNGYPDLIVGAFGVDRAILYRARPVITVNAGLEVYPSILNQDNKTCSLPGTALKVSCFNVRFCLKADGKGVLPRKLNFQVELLLDKLKQKGAIRRALFLYSRSPSHSKNMTISRGGLMQCEELIAYLRDESEFRDKLTPITIFMEYRLDYRTAADTTGLQPILNQFTPANISRQAHILLDCGEDNVCKPKLEVSVDSDQKKIYIGDDNPLTLIVKAQNQGEGAYEAELIVSIPLQADFIGVVRNNEALARLSCAFKTENQTRQVVCDLGNPMKAGTQLLAGLRFSVHQQSEMDTSVKFDLQIQSSNLFDKVSPVVSHKVDLAVLAAVEIRGVSSPDHVFLPIPNWEHKENPETEEDVGPVVQHIYELRNNGPSSFSKAMLHLQWPYKYNNNTLLYILHYDIDGPMNCTSDMEINPLRIKISSLQTTEKNDTVAGQGERDHLITKRDLALSEGDIHTLGCGVAQCLKIVCQVGRLDRGKSAILYVKSLLWTETFMNKENQNHSYSLKSSASFNVIEFPYKNLPIEDITNSTLVTTNVTWGIQPAPMPV
chain 2: GPNICTTRGVSSCQQCLAVSPMCAWCSDEALPLGSPRCDLKENLLKDNCAPESIEFPVSEARVLEDRPLSDKGSGDSSQVTQVSPQRIALRLRPDDSKNFSIQVRQVEDYPVDIYYLMDLSYSMKDDLWSIQNLGTKLATQMRKLTSNLRIGFGAFVDKPVSPYMYISPPEALENPCYDMKTTCLPMFGYKHVLTLTDQVTRFNEEVKKQSVSRNRDAPEGGFDAIMQATVCDEKIGWRNDASHLLVFTTDAKTHIALDGRLAGIVQPNDGQCHVGSDNHYSASTTMDYPSLGLMTEKLSQKNINLIFAVTENVVNLYQNYSELIPGTTVGVLSMDSSNVLQLIVDAYGKIRSKVELEVRDLPEELSLSFNATCLNNEVIPGLKSCMGLKIGDTVSFSIEAKVRGCPQEKEKSFTIKPVGFKDSLIVQVTFDCDCACQAQAEPNSHRCNNGNGTFECGVCRCGPGWLGSQCECSEEDYRPSQQDECSPREGQPVCSQRGECLCGQCVCHSSDFGKITGKYCECDDFSCVRYKGEMCSGHGQCSCGDCLCDSDWTGYYCNCTTRTDTCMSSNGLLCSGRGKCECGSCVCIQPGSYGDTCEKCPTCPDACTFKKECVECKKFDRGALHDENTCNRYCRDEIESVKELKDTGKDAVNCTYKNEDDCVVRFQYYEDSSGKSILYVVEEPECPKGPD
Turning to B1, in experiment [2], the Kd worked out at 0.16 nM.
